# Experimental data as given in article PMC10254235, “Design, Synthesis, and Anti-Cervical Cancer and Reversal of Tumor Multidrug Resistance Activity of Novel Nitrogen-Containing Heterocyclic Chalcone Derivatives” (Molecules, 2023).
# Like-named read-outs stand apart in the source and are kept apart here.
# Experiments:
# HeLa/DDP cells = assay: MTT assay, cisplatin-resistant HeLa/DDP cells; type: cell-based, human; settings: single agent; for RI (resistance index): HeLa/DDP versus HeLa; for IC50: Homo sapiens, cisplatin-resistant HeLa/DDP cells, 48 h, read-out: 48h IC50 HeLa/DDP
# Description: The cytotoxicity of the target compounds were measured in vitro using the MTT assay. Cells grown in the logarithmic phase were counted and seeded in 96-well cell culture plates (5 × 10^3 cells per well) for 24 h to allow attachment of cells to the wall of the plate. […] Next, 20 μL of 5 mg.mL^−1 MTT solution was added to each well and cultured for 4 h. The old solution was discarded, replaced with 150 μL DMSO solution per well, and shaken for 10 min. The OD value was measured under 490 nm, and the inhibition rate was calculated. The nonlinear regression fitting of the cell growth rate was carried out using SPSS 23.0 software, and the IC50 of the compound was calculated. […] A complete medium containing only cells was used as the blank control, whereas a complete medium without cells was the negative control group.
# To reduce the adverse reactions caused by the fixation of drug resistance reversal agents, the concentration that reduces the proliferation rate of tumor cells by less than 10% was selected.
# HeLa cells = assay: MTT antiproliferative assay, HeLa cells; type: cell-based, human; settings: Homo sapiens, 48 h
# Description: (§1) HeLa and SiHa cell lines were obtained from the Procell Life Science Technology Co., Ltd. (Wuhan, China); H8 cell line was obtained from the Shanghai HonSun Biological Technology Co., Ltd. (Shanghai, China); HUVEC cell line was obtained from the Saibaikang (Shanghai) Biotechnology Co., Ltd. (Shanghai, China); HeLa/DDP cell line was obtained from the Guangzhou Jenniobio Biotechnology Co., Ltd. (Guangzhou, China). HeLa, SiHa, H8, and HeLa/DDP cells were cultured in DMEM medium (HyClone). The VEGF of 50 ng/mL was used as the promoter of the VEGFR-2 receptor on HUVEC cell membrane surfaces, and their inhibitory effects on VEGFR-2 were determined. All the mediums were supplemented with 10% FBS (HyClone, GE Healthcare, Australia). Cells were maintained at subconfluency at 37 °C in humidified air containing 5% CO2. The cells were monitored daily and maintained at 80% cell density. All compounds tested were dissolved in DMSO and then diluted by the culture medium before the treatment of cultured cells. Identification reports are available for all types of cell lines involved in this study.
# (§2) The cytotoxicity of the target compounds were measured in vitro using the MTT assay. Cells grown in the logarithmic phase were counted and seeded in 96-well cell culture plates (5 × 10^3 cells per well) for 24 h to allow attachment of cells to the wall of the plate. […] Next, 20 μL of 5 mg.mL^−1 MTT solution was added to each well and cultured for 4 h. The old solution was discarded, replaced with 150 μL DMSO solution per well, and shaken for 10 min. The OD value was measured under 490 nm, and the inhibition rate was calculated. The nonlinear regression fitting of the cell growth rate was carried out using SPSS 23.0 software, and the IC50 of the compound was calculated. […] There were 6 compound holes in each group, and the experimental results were presented as the average of 3 experiments. A complete medium containing only cells was used as the blank control, whereas a complete medium without cells was the negative control group. Cisplatin and sorafenib were utilized as the positive control group, and the target compound was the experimental intervention group.
# HUVEC cells = assay: In vitro HUVEC inhibitory assay (MTT); type: cell-based; settings: Homo sapiens, 48 h, ± SD
# Description: as §1, §2
# After incubation for 24 h, the cell was collected using centrifugation and washed twice using PBS chilled to 0 °C. Then, the cells were homogenized in RIPA lysis buffer and 1% PMSF, 1% mixed phosphatase inhibitor (Solarbio, Beijing, China). The lysates were incubated on ice for 30 min, intermittently vortexed every 5 min, and centrifuged at 12,000 rpm for 20 min to harvest the supernatants.
# H8 cells = assay: MTT cytotoxicity assay, normal cervical epithelial H8 cells; type: cell-based, human; settings: Homo sapiens, 48 h, mean ± SD
# Description: as §1, §2
# VEGFR-2 [1] = target: T1, VEGFR-2 (Homo sapiens, UniProt P35968); assay: VEGFR-2 inhibition test (human p-VEGFR-2 ELISA in HeLa cells); type: cell-based; settings: ± SD, read-out: 48h IC50 VEGFR-2 inhibitory effect
# T1 construct: endogenous in cells; host or cells: HeLa cells
# Description: Specimens, standards, and HRP-labeled detection antibodies were added sequentially to the pre-covered microtiter wells containing phosphorylated vascular endothelial growth factor receptor 2 (p-VEGFR2) antibodies, warmed, and washed thoroughly. The substrate TMB was added for color development. This substrate is converted to blue using peroxidase catalysis to a final yellow color due to the action of acid. […] Curve fitting was performed using SPSS 23.0 software to calculate IC50.
# SiHa cells = assay: MTT antiproliferative assay, SiHa cells; type: cell-based, human; settings: Homo sapiens, 48 h, mean ± SD
# Description: as §1, §2
# VEGFR-2 [2] = settings: read-out: IC50 against VEGFR-2; cited from earlier work
# MCF-7 cells = settings: cytotoxic effect; cited from earlier work
# HepG2 cells = settings: cited from earlier work
# PC-3 cells = settings: cytotoxic effect; cited from earlier work
# [3] = MTT, mean ± SD, read-out: 48h IC50 HeLa
# [4] = single agent, read-out: 48h IC50 HeLa (Table 4)
# T1 sequence (P35968 20-1356): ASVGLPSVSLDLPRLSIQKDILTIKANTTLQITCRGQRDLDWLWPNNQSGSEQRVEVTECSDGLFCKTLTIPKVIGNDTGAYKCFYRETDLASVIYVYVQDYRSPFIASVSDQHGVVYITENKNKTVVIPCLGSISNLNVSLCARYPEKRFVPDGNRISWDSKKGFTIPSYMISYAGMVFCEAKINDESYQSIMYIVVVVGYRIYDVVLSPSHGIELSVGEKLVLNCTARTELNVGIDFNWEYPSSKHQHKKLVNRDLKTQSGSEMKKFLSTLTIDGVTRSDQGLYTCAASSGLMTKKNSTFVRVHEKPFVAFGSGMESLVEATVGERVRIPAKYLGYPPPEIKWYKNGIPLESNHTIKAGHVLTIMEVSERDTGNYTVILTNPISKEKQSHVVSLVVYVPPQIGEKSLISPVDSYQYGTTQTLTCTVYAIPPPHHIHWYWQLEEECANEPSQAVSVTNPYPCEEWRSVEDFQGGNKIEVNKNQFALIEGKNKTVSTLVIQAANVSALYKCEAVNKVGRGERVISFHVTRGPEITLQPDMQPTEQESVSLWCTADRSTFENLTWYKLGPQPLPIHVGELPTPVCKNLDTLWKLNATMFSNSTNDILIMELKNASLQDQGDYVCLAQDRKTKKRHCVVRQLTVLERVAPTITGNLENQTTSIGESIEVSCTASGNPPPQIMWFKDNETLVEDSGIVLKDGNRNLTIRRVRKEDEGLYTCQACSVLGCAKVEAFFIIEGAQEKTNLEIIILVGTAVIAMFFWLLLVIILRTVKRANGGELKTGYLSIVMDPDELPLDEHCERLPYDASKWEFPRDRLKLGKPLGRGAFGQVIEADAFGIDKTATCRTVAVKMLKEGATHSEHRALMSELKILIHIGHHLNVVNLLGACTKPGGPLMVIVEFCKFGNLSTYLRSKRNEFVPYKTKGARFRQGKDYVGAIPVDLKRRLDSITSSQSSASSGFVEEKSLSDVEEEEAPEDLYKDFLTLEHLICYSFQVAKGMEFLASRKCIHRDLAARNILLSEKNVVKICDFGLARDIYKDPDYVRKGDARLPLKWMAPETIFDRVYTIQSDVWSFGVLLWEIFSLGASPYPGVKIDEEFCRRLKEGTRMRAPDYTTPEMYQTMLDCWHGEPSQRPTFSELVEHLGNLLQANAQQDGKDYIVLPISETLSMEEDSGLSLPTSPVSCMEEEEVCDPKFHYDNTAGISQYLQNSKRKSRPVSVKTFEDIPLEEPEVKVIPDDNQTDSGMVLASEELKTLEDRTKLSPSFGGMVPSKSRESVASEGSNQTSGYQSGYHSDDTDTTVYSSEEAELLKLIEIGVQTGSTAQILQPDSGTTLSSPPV
SMILES,RI (resistance index) (HeLa/DDP cells),IC50 (HeLa/DDP cells) [µM],IC50 (HeLa cells; [3]) [µM],IC50 (HeLa cells; [4]) [µM],IC50 (HUVEC cells) [µM],IC50 (H8 cells) [µM],IC50 (VEGFR-2 [1]) [µM],IC50 (SiHa cells) [µM],IC50 (VEGFR-2 [2]) [µM],also measured
"COc1cc(O)c(C(=O)/C=C/c2ccc(CN3CCC(C)CC3)cc2)cc1CN1CCCC1 [6k, (E)-1-(2-hydroxy-4-methoxy-5-(pyrrolidin-1-ylmethyl)phenyl)-3-(4-((4-methylpiperidin-1-yl)methyl)phenyl)prop-2-en-1-one]",1.13,17.3 ± 2.07,15.22 ± 0.08,15.22 ± 0.08,20.2 ± 1.19,30.1 ± 0.44,1.67 ± 0.18,24.83 ± 0.17,,
"COc1cc(O)c(C(=O)/C=C/c2ccc(CN3CCC(C)CC3)cc2)cc1CN1CCOCC1 [6o, (E)-1-(2-hydroxy-4-methoxy-5-(morpholinomethyl)phenyl)-3-(4-((4-methylpiperidin-1-yl)methyl)phenyl)prop-2-en-1-one]",,,65.8 ± 1.36,,,80 ± 8.92,,63.7 ± 2.18,,melting point: 104.2 to 105.4 °C
O=C(/C=C/c1ccccc1)c1ccccc1 [Chalcone],1.23,91 ± 6.22,74 ± 4.48,74 ± 4.48,77.5 ± 4.2,77.7 ± 6.85,> 20,66.5 ± 2.88,,
CNC(=O)c1cc(Oc2ccc(C(=O)/C=C/c3cccc(Br)c3)cc2)ccn1 [compound 7],,,,,,,,,0.72,
CNC(=O)c1cc(Oc2ccc(C(=O)/C=C/c3cc(OC)c(OC)c(OC)c3)cc2)ccn1 [compound 8],,,,,,,,,3.2,"IC50 (MCF-7 cells): 3.88 ± 1.03 µM; cytotoxic activity relative to sorafenib (HepG2 cells; HepG2, MCF-7 and PC-3 cells): 1.03–6.14 times; IC50 (HepG2 cells; cytotoxic effect, HepG2 cells): 0.56 ± 0.83 µM; IC50 (PC-3 cells): 3.15 ± 0.81 µM"
CNC(=O)c1cc(Oc2ccc(C(=O)/C=C/c3ccccc3)cc2)ccn1 [compound 9],,,,,,,,,1.1,
